Measured values from ChEMBL document CHEMBL4354844, “Discovery of Balovaptan, a Vasopressin 1a Receptor Antagonist for the Treatment of Autism Spectrum Disorder” (J Med Chem, 2020).
Activity calls are given as the source filed them. No cut-off for these calls is given here.

Experiments:
[1] = Water/octanol distribution coefficient, log D of the compound at pH 7.4 measured after 18 hrs by LC-MS analysis; type: physicochemical
[2] = target: MDR1 (ABCB1, P-glycoprotein) (Homo sapiens, UniProt P08183); assay: Substrate activity at human MDR1 expressed in LLC-PK1 cells assessed as efflux ratio of permeability at 1 uM measured after 3.5 hrs by lucifer yellow based scintillation counting or HPLC method; type: ADME, cell-based
[3] = target: Vasopressin V1a receptor (Homo sapiens) (UniProt P37288); assay: Antagonist activity at human Gq5s-coupled V1a receptor expressed in CHO cells assessed as inhibition of vasopressin-induced calcium flux preincubated for 20 mins followed by vasopressin addition and measured for 5 mins by fluo-4-AM dye based FLIPR assay; type: functional, cell-based
[4] = Selectivity ratio of Kb for antagonist activity at human […] receptor to Kb for antagonist activity at human Gq5s-coupled V1a receptor expressed in CHO cells
[5] = Selectivity ratio of Kb for antagonist activity at human V2 receptor to Kb for antagonist activity at human Gq5s-coupled V1a receptor expressed in CHO cells
[6] = Intrinsic clearance in rat liver microsomes assessed per mg protein; type: ADME, Microsome; settings: read-out: CLH
[7] = Intrinsic clearance in human liver microsomes assessed per mg protein; type: ADME, Microsome; settings: read-out: CLH
[8] = test system: Rattus norvegicus; assay: Neuroprotective activity in stress hyperresponsive Fischer F344 rat assessed as increase in perfusion in substantia nigra at 30 mg/kg, iv administered as bolus dose via catheter by ASL-based MRI analysis; type: functional, organism-based
[9] = test system: Rattus norvegicus; assay: Neuroprotective activity in stress hyperresponsive Fischer F344 rat assessed as increase in perfusion in ventral tegmental area at 30 mg/kg, iv administered as bolus dose via catheter by ASL-based MRI analysis; type: functional, organism-based
[10] = test system: Rattus norvegicus; assay: Neuroprotective activity in stress hyperresponsive Fischer F344 rat assessed as increase in perfusion in raphe nuclei at 30 mg/kg, iv administered as bolus dose via catheter by ASL-based MRI analysis; type: functional, organism-based
[11] = Volume of distribution at steady state in iv dosed rat; type: ADME, organism-based; settings: in vivo, read-out: Vdss
[12] = Half life in iv dosed rat; type: ADME, organism-based; settings: in vivo
[13] = Clearance in iv dosed rat relative to hepatic blood flow; type: ADME, organism-based; settings: in vivo
[14] = test system: Rattus norvegicus; assay: Neuroprotective activity in iv dosed stress hyperresponsive Fischer F344 rat assessed as improvement in neural activity pattern administered as bolus dose via catheter by ASL-based MRI analysis; type: functional, organism-based
[15] = test system: Rattus norvegicus; assay: Neuroprotective activity in stress hyperresponsive Fischer F344 rat assessed as increase in perfusion in hypothalamus at 30 mg/kg, iv administered as bolus dose via catheter by ASL-based MRI analysis; type: functional, organism-based
[16] = test system: Rattus norvegicus; assay: In vivo receptor occupancy at V1a receptor in stress hyperresponsive Fischer F344 rat at 30 mg/kg, iv administered as bolus dose via catheter; type: functional
[17] = Half life in iv dosed human; type: ADME, organism-based; settings: in vivo

Vasopressin V1a receptor (Homo sapiens), sequence (P37288 whole entry, looked up): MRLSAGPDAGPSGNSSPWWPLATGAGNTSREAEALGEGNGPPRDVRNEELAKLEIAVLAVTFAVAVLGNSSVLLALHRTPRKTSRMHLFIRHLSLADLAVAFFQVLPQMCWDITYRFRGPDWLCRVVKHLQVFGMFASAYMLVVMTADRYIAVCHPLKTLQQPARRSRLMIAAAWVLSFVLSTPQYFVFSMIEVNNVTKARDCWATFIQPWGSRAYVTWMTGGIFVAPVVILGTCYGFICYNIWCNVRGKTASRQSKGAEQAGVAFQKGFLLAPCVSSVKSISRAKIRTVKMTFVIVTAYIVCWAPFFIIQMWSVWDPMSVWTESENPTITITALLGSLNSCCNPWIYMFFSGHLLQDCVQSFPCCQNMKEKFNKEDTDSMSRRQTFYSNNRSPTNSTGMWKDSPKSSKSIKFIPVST
MDR1 (ABCB1, P-glycoprotein), sequence (P08183 whole entry): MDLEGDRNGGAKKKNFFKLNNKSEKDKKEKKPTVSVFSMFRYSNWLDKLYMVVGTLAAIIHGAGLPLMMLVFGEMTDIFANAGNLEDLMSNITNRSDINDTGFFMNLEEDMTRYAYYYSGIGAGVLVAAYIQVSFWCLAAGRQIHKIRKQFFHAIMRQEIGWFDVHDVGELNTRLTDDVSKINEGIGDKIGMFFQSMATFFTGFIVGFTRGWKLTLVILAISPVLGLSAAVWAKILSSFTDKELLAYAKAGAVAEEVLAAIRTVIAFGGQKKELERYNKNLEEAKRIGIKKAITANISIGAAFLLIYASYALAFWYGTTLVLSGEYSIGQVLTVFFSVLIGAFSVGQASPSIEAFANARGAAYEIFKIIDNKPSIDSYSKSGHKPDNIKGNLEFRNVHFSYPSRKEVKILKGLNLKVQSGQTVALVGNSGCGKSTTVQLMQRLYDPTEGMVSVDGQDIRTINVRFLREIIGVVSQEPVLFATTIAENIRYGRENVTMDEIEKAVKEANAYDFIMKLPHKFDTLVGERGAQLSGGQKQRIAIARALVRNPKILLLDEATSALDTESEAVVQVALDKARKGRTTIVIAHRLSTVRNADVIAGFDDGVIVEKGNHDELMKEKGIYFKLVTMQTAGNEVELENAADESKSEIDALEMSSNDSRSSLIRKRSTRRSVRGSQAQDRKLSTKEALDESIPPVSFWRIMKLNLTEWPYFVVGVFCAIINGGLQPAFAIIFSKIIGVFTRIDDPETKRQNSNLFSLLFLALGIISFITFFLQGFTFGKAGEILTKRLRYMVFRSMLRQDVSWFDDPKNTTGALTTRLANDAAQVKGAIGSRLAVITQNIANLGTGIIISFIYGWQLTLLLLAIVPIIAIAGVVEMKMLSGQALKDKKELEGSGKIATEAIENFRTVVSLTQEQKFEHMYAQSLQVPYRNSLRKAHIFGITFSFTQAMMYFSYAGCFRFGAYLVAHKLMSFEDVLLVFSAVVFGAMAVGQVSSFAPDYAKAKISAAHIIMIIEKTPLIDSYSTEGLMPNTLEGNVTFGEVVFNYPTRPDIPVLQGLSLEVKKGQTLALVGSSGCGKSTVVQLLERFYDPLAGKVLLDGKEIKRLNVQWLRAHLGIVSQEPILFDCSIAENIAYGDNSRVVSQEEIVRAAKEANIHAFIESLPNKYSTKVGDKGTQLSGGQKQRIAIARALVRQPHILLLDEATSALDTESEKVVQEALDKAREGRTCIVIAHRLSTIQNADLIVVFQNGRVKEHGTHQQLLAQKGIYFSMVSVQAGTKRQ

Row | SMILES | logD at 18 h [1] | pKb [3] | Selectivity ratio [4] | Selectivity ratio [5] | other results
1 | Cc1cc(C)nc([C@H]2CC[C@H](c3nnc4n3-c3ccc(Cl)cc3CN(C)C4)CC2)n1 | 2 |  |  |  | 
2 | CN1Cc2cc(Cl)ccc2-n2c(nnc2[C@H]2CC[C@H](C3=NOCC3)CC2)C1 | 1 |  |  |  | efflux ratio at 3.5 h, 1 µM [2]: 6.1
3 | CN1Cc2cc(Cl)ccc2-n2c(nnc2[C@H]2CC[C@H](c3ccccn3)CC2)C1 |  | 9.6 | 863 | 1081 | efflux ratio at 3.5 h, 1 µM [2]: 4.4
4 | CN1Cc2cc(Cl)ccc2-n2c(nnc2N2CCC(O)(c3ccccc3)CC2)C1 |  | 8.6 | 35 | 38 | microsomal CLint [6]: 435 µL/min/mg; microsomal CLint [7]: < 10 µL/min/mg
5 | Clc1ccc2c(c1)CNCc1nnc([C@H]3CC[C@H](Oc4ccccc4)CC3)n1-2 | 2.7 | 8.7 | 430 | 523 | efflux ratio at 3.5 h, 1 µM [2]: 4.3
6 | CN1Cc2cc(Cl)ccc2-n2c(nnc2[C@H]2CC[C@]3(CC2)OCc2ccccc23)C1 |  | 9.1 | 5 | 19 | microsomal CLint [6]: 206 µL/min/mg; microsomal CLint [7]: 10 µL/min/mg
7 | CN1Cc2cc(Cl)ccc2-n2c(nnc2[C@H]2CC[C@H](c3ncc(F)cc3F)CC2)C1 | 2.5 to 3.2 |  |  |  | 
8 | CN1Cc2cc(Cl)ccc2-n2c(nnc2[C@H]2CC[C@H](Oc3ccccc3)CC2)C1 | 3.2 | 9.5 | 289 | 629 | 
9 | CC(C)(C)OC(=O)N1Cc2cc(Cl)ccc2-n2c(nnc2[C@H]2CC[C@H](Oc3ccccc3)CC2)C1 |  | 8.5 | 17 | 19 | 
10 | Cc1onc([C@H]2CC[C@H](c3nnc4n3-c3ccc(Cl)cc3CN(C)C4)CC2)c1C |  |  |  |  | efflux ratio at 3.5 h, 1 µM [2]: 3.8
11 | Cc1nnc(-c2ccc(-c3ccccc3)cc2)n1-c1ccccc1OCCCCCCN1CCN(C)CC1 |  | 8.7 | 34 | 67 | 
12 | CC(C)N1Cc2cc(Cl)ccc2-n2c(nnc2[C@H]2CC[C@H](Oc3ccccc3)CC2)C1 |  | 9.4 | 224 | 535 | 
13 | CN1Cc2cc(Cl)ccc2-n2c(nnc2[C@H]2CC[C@H](Nc3ccccn3)CC2)C1 |  |  |  |  | efflux ratio at 3.5 h, 1 µM [2]: 14
14 | CN(C)CC(=O)N1Cc2cc(Cl)ccc2-n2c(nnc2[C@H]2CC[C@H](Oc3ccccc3)CC2)C1 | 2.5 | 9.2 | 1025 | 963 | 
15 | CN1Cc2cc(Cl)ccc2-n2c(nnc2[C@H]2CC[C@H](c3ccc(F)cn3)CC2)C1 | 2.5 to 3.2 |  |  |  | 
16 | CN1Cc2cc(Cl)ccc2-n2c(nnc2C2CC=C(c3ccccc3)CC2)C1 (racemic) |  | 9.3 | 22 | 90 | 
17 | CN1Cc2cc(Cl)ccc2-n2c(nnc2C2CCN(c3ccccn3)CC2)C1 |  | 8.9 | 2415 | 2478 | microsomal CLint [6]: 72 µL/min/mg; microsomal CLint [7]: < 10 µL/min/mg
18 | CN1Cc2cc(Cl)ccc2-n2c(nnc2-c2ccc(-c3ccccc3)cc2)C1 |  | 8.6 | 13 | 30 | Activity [8]: Active; Activity [9]: Active; Kb [3]: 12 nM; Activity [10]: Active; Vd [11]: 4 to 6 L/kg; half-life [12]: 1.5 h; clearance [13]: 50 to 60%; Activity [14]: Dose-dependent effect; Activity [15]: Active; Occ [16]: >90%

Row | SMILES | logD at 18 h [1] | pKb [3] | Selectivity ratio [4] | Selectivity ratio [5] | other results
19 | CN1Cc2cc(Cl)ccc2-n2c(nnc2[C@H]2CC[C@H](n3nnc4ccccc43)CC2)C1 | 2.4 |  |  |  | efflux ratio at 3.5 h, 1 µM [2]: 10.9
20 | CN1Cc2cc(Cl)ccc2-n2c(nnc2N2CCC3(CC2)COCc2ccccc23)C1 |  | 9.3 | 14 | 167 | microsomal CLint [6]: 949 µL/min/mg; microsomal CLint [7]: 22 µL/min/mg
21 | CN1Cc2cc(Cl)ccc2-n2c(nnc2[C@H]2CC[C@H](c3cccc(Cl)n3)CC2)C1 | 2.5 to 3.2 |  |  |  | 
22 | CN1Cc2cc(Cl)ccc2-n2c(nnc2N2CCC3(CC2)OCc2ccccc23)C1 |  | 9.6 | 127 | 218 | microsomal CLint [6]: 718 µL/min/mg; microsomal CLint [7]: < 10 µL/min/mg
23 | CN1Cc2cc(Cl)ccc2-n2c(nnc2N2CCC3(CC2)OCCc2ccccc23)C1 |  | 8.8 | 10 | 44 | microsomal CLint [6]: 550 µL/min/mg; microsomal CLint [7]: < 10 µL/min/mg
24 | OCCN1Cc2cc(Cl)ccc2-n2c(nnc2[C@H]2CC[C@H](Oc3ccccc3)CC2)C1 | 2.7 | 9.6 | 677 | 1091 | 
25 | CN1Cc2cc(Cl)ccc2-n2c(nnc2[C@H]2CC[C@H](c3ncccc3F)CC2)C1 | 2.5 to 3.2 |  |  |  | 
26 | CC(=O)N1Cc2cc(Cl)ccc2-n2c(nnc2[C@H]2CC[C@H](Oc3ccccc3)CC2)C1 | 2.9 | 9.5 | 538 | 1055 | 
27 | CN1Cc2cc(Cl)ccc2-n2c(nnc2[C@H]2CC[C@H](c3ccccc3)CC2)C1 |  | 9.5 | 4 | 17 | 
28 | CN1Cc2cc(Cl)ccc2-n2c(nnc2N2CCC3(CC2)SCc2ccccc23)C1 |  | 9 | 9 | 65 | microsomal CLint [6]: 493 µL/min/mg; microsomal CLint [7]: 24 µL/min/mg
29 | CS(=O)(=O)N1Cc2cc(Cl)ccc2-n2c(nnc2[C@H]2CC[C@H](Oc3ccccc3)CC2)C1 | 3.1 | 9.5 | 191 | 573 | 
30 | CN(C)CCn1cc(C(=O)N2CCC3(CC2)OCc2ccccc23)c2ccc(Cl)cc21 [RO-5028442] |  |  |  |  | half-life [17]: 8 h
31 | CN1Cc2cc(Cl)ccc2-n2c(nnc2[C@H]2CC[C@@]3(CC2)OCc2ccccc23)C1 |  | 9.2 | 236 | 669 | microsomal CLint [6]: 1000 µL/min/mg; microsomal CLint [7]: 72 µL/min/mg
32 | Cc1cccc([C@H]2CC[C@H](c3nnc4n3-c3ccc(Cl)cc3CN(C)C4)CC2)n1 | 2.5 to 3.2 |  |  |  | 
33 | CN1Cc2cc(Cl)ccc2-n2c(nnc2[C@H]2CC[C@H](c3noc4ccccc43)CC2)C1 | > 3 |  |  |  | efflux ratio at 3.5 h, 1 µM [2]: 1.4
34 | CN1Cc2cc(Cl)ccc2-n2c(nnc2[C@H]2CC[C@H](c3ncccc3Cl)CC2)C1 | 2.5 to 3.2 |  |  |  | 
35 | Clc1ccc2c(c1)CN(C1CCC1)Cc1nnc([C@H]3CC[C@H](Oc4ccccc4)CC3)n1-2 | > 3 | 9.3 | 113 | 179 | 
36 | CN(C)S(=O)(=O)N1Cc2cc(Cl)ccc2-n2c(nnc2[C@H]2CC[C@H](Oc3ccccc3)CC2)C1 | 4.1 | 9.5 | 190 | 445 | 
